According to US10294202B2, “Pyrrolidinones as herbicides” (FMC Corporation, priority 2013, dated 2019):

Assays:
chickweed = test: Test D pre-/postemergence herbicide test; type: in vivo, Stellaria media; details: for Plant response rating, Chickweed: scale 0 to 100 (0 no effect, 100 complete control); for Plant response rating: Chickweed, scale 0 to 100
Source text: (§1) Seeds of plant species selected from bluegrass (annual bluegrass, Poa annua), blackgrass (Alopecurus myosuroides), canarygrass (littleseed canarygrass, Phalaris minor), chickweed (common chickweed, Stellaria media), galium (catchweed bedstraw, Galium aparine), bromegrass, downy (downy bromegrass, Bromus tectorum), field poppy (Papaver rhoeas), field violet (Viola arvensis), foxtail, green (green foxtail, Setaria viridis), deadnettle (henbit deadnettle, Lamium amplexicaule), ryegrass, Italian (Italian ryegrass, Lolium multiflorum), kochia (Kochia scoparia), lambsquarters (Chenopodium album), oilseed rape (Brassica napus), pigweed (Amaranthus retroflexus), chamomile (scentless chamomile, Matricaria inodora), Russian thistle (Salsola kali), speedwell (bird's-eye speedwell, Veronica persica), barley, spring (spring barley, Hordeum vulgare), wheat, spring (spring wheat, Triticum aestivum), buckwheat, wild (wild buckwheat, Polygonum convolvulus), mustard, wild (wild mustard, Sinapis arvensis), oat, wild (wild oat, Avena fatua), radish, wild (wild radish, Raphanus raphanistrum), […]), barley, winter (winter barley, Hordeum vulgare), and wheat, winter (winter wheat, Triticum aestivum) were planted into a silt loam soil and treated preemergence with test chemicals formulated in a non-phytotoxic solvent mixture which included a surfactant. At the same time, these species were planted in pots containing Redi-Earth® planting medium (Scotts Company, 14111 Scottslawn Road, Marysville, Ohio 43041) comprising spaghnum peat moss, vermiculite, wetting agent and starter nutrients and treated with postemergence applications of the test chemicals formulated in the same manner. Plants ranged in height from 2 to 18 cm (1- to 4-leaf stage). Treated plants and controls were maintained in a controlled growth environment for 7 to 21 days after which time all species were compared to controls and visually evaluated. Plant response ratings, summarized in Table D, are based on a scale of 0 to 100 where 0 is no effect and 100 is complete control. A dash (-) response means no test result.

bromegrass, downy = test: Test D pre-/postemergence herbicide test; type: in vivo, Bromus tectorum; details: for Plant response rating, Bromegrass, Downy: scale 0 to 100 (0 no effect, 100 complete control); for Plant response rating: Bromegrass, Downy, scale 0 to 100
Source text: as §1

mustard, wild = test: Test D pre-/postemergence herbicide test; type: in vivo, Sinapis arvensis; details: for Plant response rating, Mustard, Wild: scale 0 to 100 (0 no effect, 100 complete control); for Plant response rating: Mustard, Wild, scale 0 to 100
Source text: as §1

lambsquarters = test: Test D pre-/postemergence herbicide test; type: in vivo, Chenopodium album; details: for Plant response rating, Lambsquarters: scale 0 to 100 (0 no effect, 100 complete control); for Plant response rating: Lambsquarters, scale 0 to 100
Source text: as §1

rice, transplanted = test: Test F flood (paddy) test; type: in vivo, Oryza sativa cv. Japonica—M202; details: 21 d, scale 0-100
Source text: Three plastic pots (ca. 16-cm diameter) per rate were partially filled with sterilized Tama silt loam soil comprising a 35:50:15 ratio of sand, silt and clay and 2.6% organic matter. Separate plantings for each of the three pots were as follows. Seeds from the U.S. of monochoria (Monochoria vaginalis), sedge, umbrella (small-flower umbrella sedge, Cyperus difformis), bulrush, […] bulrush, Scirpus juncoides), and […] (purple […] coccinea), were planted into one 16-cm pot for each rate. Seeds from the U.S. of flatsedge, rice (rice flatsedge, Cyperus iria), sprangletop, Brdd. (bearded sprangletop, Leptochloa fascicularis), one stand of 9 or 10 water seeded rice seedlings (Rice, W.S. Jap, Oryza sativa cv. 'Japonica-[…]' or Rice, W.S. Ind, 'Indica'), and two stands of 3 or 4 seedlings of rice, transplanted (transplanted rice, Oryza sativa cv. 'Japonica-[…]') were planted into one 16-cm pot for each rate. Seeds from the U.S. of barnyardgrass (Echinochloa crus-galli), […] (common […], Alisma plantago-aquatica), and watergrass, late (late watergrass, Echinochloa oryzicola) were planted into one 16-cm pot for each rate. Plantings were sequential so that crop and weed species were at the 2.0 to 2.5-leaf stage at time of treatment. Potted plants were grown in a greenhouse with day/night temperature settings of 30/27° C., and supplemental balanced lighting was provided to maintain a 16-h photoperiod. Test pots were maintained in the greenhouse until test completion. At time of treatment, test pots were flooded to 3 cm above the soil surface, treated by application of test compounds directly to the paddy water, and then maintained at that water depth for the duration of the test. Effects of treatments on rice and weeds were visually evaluated by comparison to untreated controls after 21 d. Plant response ratings, summarized in Table F, are based on a scale of 0 to 100 where 0 is no effect and 100 is complete control. A dash (-) response means no test result.

chamomile = test: Test D pre-/postemergence herbicide test; type: in vivo, Matricaria inodora; details: Postemergence, Chamomile, scale 0 to 100
Source text: as §1

`O=C1NCC(c2cccc(C(F)(F)F)c2)C1C(=O)Nc1cccc(F)c1F` (stereo not drawn) [Compound 241] was tested, and the “Plant response rating, Chickweed” value (chickweed; Preemergence, 31 g ai/ha) was 90, the “Plant response rating, Chickweed” value (chickweed; Preemergence, 62 g ai/ha) was 80 and the “Plant response rating, Chickweed” value (chickweed; Preemergence, 125 g ai/ha) was 95. For the same molecule, the Plant response rating (chickweed; Preemergence, 250 g ai/ha) was 100, the “Plant response rating, Bromegrass, Downy” value (bromegrass, downy; Preemergence, 31 g ai/ha) was 0 and the “Plant response rating, Bromegrass, Downy” value (bromegrass, downy; Preemergence, 62 g ai/ha) was 15. For the same molecule, the “Plant response rating, Bromegrass, Downy” value (bromegrass, downy; Preemergence, 125 g ai/ha) was 15, the Plant response rating (bromegrass, downy; Preemergence, 250 g ai/ha) was 60 and the “Plant response rating, Mustard, Wild” value (mustard, wild; Preemergence, 31 g ai/ha) was 10. For the same molecule, the “Plant response rating, Mustard, Wild” value (mustard, wild; Preemergence, 62 g ai/ha) was 15, the “Plant response rating, Mustard, Wild” value (mustard, wild; Preemergence, 125 g ai/ha) was 15 and the Plant response rating (mustard, wild; Preemergence, 250 g ai/ha) was 25. For the same molecule, the “Plant response rating, Lambsquarters” value (lambsquarters; Preemergence, 31 g ai/ha) was 85, the “Plant response rating, Lambsquarters” value (lambsquarters; Preemergence, 62 g ai/ha) was 90 and the “Plant response rating, Lambsquarters” value (lambsquarters; Preemergence, 125 g ai/ha) was 90. For the same molecule, the Plant response rating (lambsquarters; Preemergence, 250 g ai/ha) was 90.
With `O=C1NCC(c2cccc(C(F)(F)F)c2)C1C(=O)Nc1ccccc1F` (racemic) [Compound 3] the “Plant response rating, Rice, Transplanted” value (shortened to “Plant response rating, Rice”) (rice, transplanted; 250 g ai/ha) was 0 and the “Plant response rating, Rice” value (rice, transplanted; 500 g ai/ha) was 0.
In the case of `O=C1NCC(c2cc(F)c(F)c(F)c2)C1C(=O)Nc1ccccc1C(F)(F)F` (racemic) [Compound 33], the Plant response rating (chickweed; Postemergence, 16 g ai/ha) is reported as 0, the Plant response rating (chickweed; Postemergence, 31 g ai/ha) is reported as 0 and the Plant response rating (chickweed; Postemergence, 62 g ai/ha) is reported as 0. The Plant response rating (chickweed; Postemergence, 125 g ai/ha) was 10, the Plant response rating (chickweed; Postemergence, 250 g ai/ha) was 10 and the Plant response rating (bromegrass, downy; Postemergence, 16 g ai/ha) was 0. The Plant response rating (bromegrass, downy; Postemergence, 31 g ai/ha) was 0, the Plant response rating (bromegrass, downy; Postemergence, 62 g ai/ha) was 0 and the Plant response rating (bromegrass, downy; Postemergence, 125 g ai/ha) was 0. It also gave a Plant response rating (bromegrass, downy; Postemergence, 250 g ai/ha) of 0, a Plant response rating (mustard, wild; Postemergence, 16 g ai/ha) of 0 and a Plant response rating (mustard, wild; Postemergence, 31 g ai/ha) of 0. The Plant response rating (mustard, wild; Postemergence, 62 g ai/ha) was 0, the Plant response rating (mustard, wild; Postemergence, 125 g ai/ha) was 0 and the Plant response rating (mustard, wild; Postemergence, 250 g ai/ha) was 0. It also gave a Plant response rating (chamomile; 16 g ai/ha) of 0, a Plant response rating (chamomile; 31 g ai/ha) of 0 and a Plant response rating (chamomile; 62 g ai/ha) of 0. The Plant response rating (chamomile; 125 g ai/ha) was 0, the Plant response rating (chamomile; 250 g ai/ha) was 0 and the Plant response rating (lambsquarters; Postemergence, 16 g ai/ha) was 0. It also gave a Plant response rating (lambsquarters; Postemergence, 31 g ai/ha) of 0, a Plant response rating (lambsquarters; Postemergence, 62 g ai/ha) of 0 and a Plant response rating (lambsquarters; Postemergence, 125 g ai/ha) of 0. It also gave a Plant response rating (lambsquarters; Postemergence, 250 g ai/ha) of 20.
In the case of `O=C1NCC(c2ccc(C(F)(F)F)c(F)c2)C1C(=O)Nc1cccc(F)c1F` (racemic) [Compound 247], the “Plant response rating, Rice” value (rice, transplanted; 125 g ai/ha) is reported as 0, the “Plant response rating, Rice” value (rice, transplanted; 250 g ai/ha) is reported as 0 and the “Plant response rating, Rice” value (rice, transplanted; 500 g ai/ha) is reported as 0. For the same molecule, the “Plant response rating, Rice” value (rice, transplanted; 1000 g ai/ha) was 10 and the “Plant response rating, Rice” value (rice, transplanted; 2000 g ai/ha) was 15.
